From the NIST ThermoML archive (doi:10.1007/s10765-010-0737-5)

Assay: xn = mol fraction of the nth substance listed
Settings: Liquid; for viscosity: 101 kPa, Capillary tube (Ostwald / Ubbelohde) method; for mass density: 101.3 kPa

CCC(C)Cl (configuration not stated) [2-chlorobutane] + CC(C)OC(C)C
Settings	mass density [kg/m3]	viscosity [mPa·s]
283.15 K, x1 = 0.0519	740.159	0.3683
283.15 K, x1 = 0.0988	745.897	0.3716
283.15 K, x1 = 0.2006	758.792	0.3796
283.15 K, x1 = 0.3211	774.756	0.3899
283.15 K, x1 = 0.4201	788.575	0.3991
283.15 K, x1 = 0.532	804.971	0.4101
283.15 K, x1 = 0.6244	819.223	0.4199
283.15 K, x1 = 0.726	835.602	0.431
283.15 K, x1 = 0.8163	850.907	0.4413
283.15 K, x1 = 0.8817	862.411	0.4489
283.15 K, x1 = 0.9634	877.39	0.4587
283.15 K, x1 = 1	884.34	0.4631
288.15 K, x1 = 0.0519	734.981	0.3519
288.15 K, x1 = 0.0988	740.712	0.3549
288.15 K, x1 = 0.2006	753.569	0.3621
288.15 K, x1 = 0.3211	769.483	0.3713
288.15 K, x1 = 0.4201	783.251	0.3795
288.15 K, x1 = 0.532	799.602	0.3894
288.15 K, x1 = 0.6244	813.814	0.398
288.15 K, x1 = 0.726	830.144	0.408
288.15 K, x1 = 0.8163	845.414	0.4172
288.15 K, x1 = 0.8817	856.901	0.424
288.15 K, x1 = 0.9634	871.819	0.4326
288.15 K, x1 = 1	878.756	0.4365
293.15 K, x1 = 0.0519	729.792	0.3371
293.15 K, x1 = 0.0988	735.485	0.34
293.15 K, x1 = 0.2006	748.303	0.3468
293.15 K, x1 = 0.3211	764.161	0.3555
293.15 K, x1 = 0.4201	777.889	0.3632
293.15 K, x1 = 0.532	–	0.3725
293.15 K, x1 = 0.6244	808.369	0.3806
293.15 K, x1 = 0.726	824.657	0.39
293.15 K, x1 = 0.8163	839.877	0.3987
293.15 K, x1 = 0.8817	851.332	0.4051
293.15 K, x1 = 0.9634	866.214	0.4131
293.15 K, x1 = 1	873.13	0.4167
298.15 K, x1 = 0.0519	724.535	0.321
298.15 K, x1 = 0.0988	730.22	0.3239
298.15 K, x1 = 0.2006	742.995	0.3306
298.15 K, x1 = 0.3211	758.802	0.3392
298.15 K, x1 = 0.4201	772.485	0.3467
298.15 K, x1 = 0.532	788.75	0.3559
298.15 K, x1 = 0.6244	802.882	0.3639
298.15 K, x1 = 0.726	819.123	0.3731
298.15 K, x1 = 0.8163	834.307	0.3817
298.15 K, x1 = 0.8817	845.724	0.3879
298.15 K, x1 = 0.9634	860.57	0.3959
298.15 K, x1 = 1	867.474	0.3993
303.15 K, x1 = 0.0519	719.276	0.3033
303.15 K, x1 = 0.0988	724.919	0.3061
303.15 K, x1 = 0.2006	737.649	0.3127
303.15 K, x1 = 0.3211	753.411	0.3212
303.15 K, x1 = 0.4201	767.06	0.3286
303.15 K, x1 = 0.532	783.263	0.3375
303.15 K, x1 = 0.6244	797.355	0.3454
303.15 K, x1 = 0.726	813.555	0.3545
303.15 K, x1 = 0.8163	828.698	0.3628
303.15 K, x1 = 0.8817	840.084	0.369
303.15 K, x1 = 0.9634	854.895	0.3767
303.15 K, x1 = 1	861.779	0.38
308.15 K, x1 = 0.0519	713.939	0.2887
308.15 K, x1 = 0.0988	719.569	0.2915
308.15 K, x1 = 0.2006	732.261	0.2977
308.15 K, x1 = 0.3211	747.973	0.3058
308.15 K, x1 = 0.4201	761.571	0.3127
308.15 K, x1 = 0.532	777.737	0.3212
308.15 K, x1 = 0.6244	791.784	0.3287
308.15 K, x1 = 0.726	807.944	0.3374
308.15 K, x1 = 0.8163	823.046	0.3453
308.15 K, x1 = 0.8817	834.402	0.3511
308.15 K, x1 = 0.9634	849.179	0.3584
308.15 K, x1 = 1	856.044	0.3615
313.15 K, x1 = 0.0519	708.573	0.2752
313.15 K, x1 = 0.0988	714.181	0.2779
313.15 K, x1 = 0.2006	726.833	0.2838
313.15 K, x1 = 0.3211	742.484	0.2914
313.15 K, x1 = 0.4201	756.049	0.2981
313.15 K, x1 = 0.532	772.166	0.3062
313.15 K, x1 = 0.6244	786.18	0.3133
313.15 K, x1 = 0.726	802.287	0.3215
313.15 K, x1 = 0.8163	817.349	0.329
313.15 K, x1 = 0.8817	828.683	0.3345
313.15 K, x1 = 0.9634	843.42	0.3413
313.15 K, x1 = 1	850.266	0.3443
